Measurements published in publication PMC3157398 (PLoS ONE, 2011).

Experiments:
[1] = target: mycobacterial ATP synthase (Mycolicibacterium smegmatis, UniProt A0R205+A0R206)
ATP synthase subunit c = target: T1, ATP synthase subunit c (Mycobacterium tuberculosis, UniProt P9WPS1); assay type: binding
T1 construct: made in house

ATP synthase holoenzyme = ATP synthase holoenzyme (Bacillus sp., UniProt P00845+P09218); assay type: binding, Bacillus PS3
[2] = system: ATP synthase with resistance mutation D32V in subunit c; assay type: biochemical, Mycobacterium smegmatis

T1 sequence (P9WPS1 whole entry): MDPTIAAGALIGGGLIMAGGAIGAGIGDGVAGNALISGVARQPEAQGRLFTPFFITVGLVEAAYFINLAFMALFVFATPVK

CC(C)(C)c1cc(C=C(C#N)C#N)cc(C(C)(C)C)c1O [SF6847]
residual ATP synthesis activity [1]: < 10%

COc1nc2ccc(N)cc2cc1[C@@H](c1ccccc1)[C@@](O)(CCN(C)C)c1cccc2ccccc12 [TMC207 amino-analog]
dissociation constant of mono-exponential fit (ATP synthase subunit c): 0.002295
dissociation constant of mono-exponential fit (ATP synthase holoenzyme): 0.000103

COc1nc2ccc(Br)cc2cc1[C@@H](c1ccccc1)[C@@](O)(CCN(C)C)c1cccc2ccccc12 [TMC207]
inhibition of ATP synthesis [2]: no inhibition
